Tests used:
[1] = target: TLR7 (Homo sapiens (Human), UniProt Q9NYK1); assay: TLR7 human peripheral blood mononuclear cell (PBMC) cell-based assay (GS-986 as agonist; IL-6 and IFNα readout); settings: human PBMCs, TLR7 agonist GS-986 at 400 nM, 6 hours, antagonist potency; read-out: TLR-7 EC50
In short: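 IL-6 and IFNα released into supernatant were quantified by electrochemiluminescence immunoassay. Before that, human PBMCs at 100,000 per well received a 10-point antagonist titration for 1 h, then TLR7 agonist for 6 more hours, all at 37 °C, 5% CO2.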

[2] = target: TLR8 (Homo sapiens (Human), UniProt Q9NR97); assay: TLR8 human peripheral blood mononuclear cell (PBMC) cell-based assay (Compound A as agonist; TNFα and IL12p40 readout); settings: human PBMCs, TLR8 agonist Compound A at 800 nM, 6 hours, antagonist potency; read-out: TLR-8 EC50
Sequence of TLR8 (Q9NR97 27-1041): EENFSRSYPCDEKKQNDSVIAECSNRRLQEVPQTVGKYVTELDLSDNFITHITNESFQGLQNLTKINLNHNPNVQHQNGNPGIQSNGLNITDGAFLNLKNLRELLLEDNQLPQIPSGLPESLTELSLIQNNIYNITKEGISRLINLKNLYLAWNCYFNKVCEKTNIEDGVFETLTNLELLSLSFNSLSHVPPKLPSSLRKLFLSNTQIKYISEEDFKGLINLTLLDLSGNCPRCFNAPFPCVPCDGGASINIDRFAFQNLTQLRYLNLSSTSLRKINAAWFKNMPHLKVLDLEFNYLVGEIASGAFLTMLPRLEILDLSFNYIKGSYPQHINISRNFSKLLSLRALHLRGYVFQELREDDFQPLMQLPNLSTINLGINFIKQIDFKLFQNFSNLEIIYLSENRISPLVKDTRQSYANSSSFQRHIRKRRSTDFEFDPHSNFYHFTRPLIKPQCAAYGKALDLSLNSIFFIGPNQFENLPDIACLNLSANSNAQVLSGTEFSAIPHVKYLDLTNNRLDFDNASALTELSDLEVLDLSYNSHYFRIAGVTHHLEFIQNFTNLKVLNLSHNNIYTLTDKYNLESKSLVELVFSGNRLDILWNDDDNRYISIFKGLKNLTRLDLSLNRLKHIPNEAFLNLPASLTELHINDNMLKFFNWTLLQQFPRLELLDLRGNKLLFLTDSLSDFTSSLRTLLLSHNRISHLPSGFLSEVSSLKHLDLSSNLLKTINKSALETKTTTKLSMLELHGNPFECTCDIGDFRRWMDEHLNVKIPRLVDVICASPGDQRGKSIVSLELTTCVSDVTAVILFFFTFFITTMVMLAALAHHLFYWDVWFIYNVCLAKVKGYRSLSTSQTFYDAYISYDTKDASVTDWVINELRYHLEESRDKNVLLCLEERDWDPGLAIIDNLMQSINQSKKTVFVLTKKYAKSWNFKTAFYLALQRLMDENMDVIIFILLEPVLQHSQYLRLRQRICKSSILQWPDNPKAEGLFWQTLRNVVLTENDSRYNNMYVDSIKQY

Sequence of TLR7 (Q9NYK1 27-1049): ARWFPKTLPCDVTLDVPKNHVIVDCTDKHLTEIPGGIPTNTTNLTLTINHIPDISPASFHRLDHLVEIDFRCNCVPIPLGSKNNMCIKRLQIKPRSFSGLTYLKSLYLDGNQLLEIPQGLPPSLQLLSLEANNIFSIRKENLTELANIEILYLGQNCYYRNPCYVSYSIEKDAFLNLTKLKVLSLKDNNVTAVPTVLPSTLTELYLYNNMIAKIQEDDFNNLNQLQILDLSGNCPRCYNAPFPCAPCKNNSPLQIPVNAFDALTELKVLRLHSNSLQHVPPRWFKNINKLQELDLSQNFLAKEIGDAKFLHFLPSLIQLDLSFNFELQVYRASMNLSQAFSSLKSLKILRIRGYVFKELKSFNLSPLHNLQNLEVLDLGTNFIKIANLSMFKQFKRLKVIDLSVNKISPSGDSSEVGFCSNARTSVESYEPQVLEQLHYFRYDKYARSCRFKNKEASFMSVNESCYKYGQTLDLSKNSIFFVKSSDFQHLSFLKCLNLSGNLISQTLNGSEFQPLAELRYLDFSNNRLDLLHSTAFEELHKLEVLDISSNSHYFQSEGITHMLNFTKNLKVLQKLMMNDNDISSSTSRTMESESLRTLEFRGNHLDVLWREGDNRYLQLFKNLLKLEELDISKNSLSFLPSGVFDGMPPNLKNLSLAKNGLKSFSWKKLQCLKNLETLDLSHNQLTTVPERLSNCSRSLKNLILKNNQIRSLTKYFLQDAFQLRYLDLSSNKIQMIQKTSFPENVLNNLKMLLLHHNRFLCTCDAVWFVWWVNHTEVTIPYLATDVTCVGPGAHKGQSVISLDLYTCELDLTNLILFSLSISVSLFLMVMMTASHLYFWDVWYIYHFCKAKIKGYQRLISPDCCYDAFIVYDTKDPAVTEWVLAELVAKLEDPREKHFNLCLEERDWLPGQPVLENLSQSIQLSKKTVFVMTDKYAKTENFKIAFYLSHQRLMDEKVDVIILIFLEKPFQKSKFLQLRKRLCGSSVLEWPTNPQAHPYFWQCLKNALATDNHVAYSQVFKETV

SMILES | EC50 [1] [nM] | EC50 [2] [nM]
Cc1c(-c2[nH]c3sc([C@H]4C[C@@H]5C[C@H]4CN5)c(C)c3c2C(C)C)cn2ncnc2c1C [Example 275, 2-((1S,4R,5S)-2-azabicyclo[2.2.1]heptan-5-yl)-5-(7,8-dimethyl-[1,2,4]triazolo[1,5-a]pyridin-6-yl)-4-isopropyl-3-methyl-6H-thieno[2,3-b]pyrrole] | 0.4 | 2.91
CCc1c(C2CCNCC2)sc2[nH]c(-c3cc(C)c4ncnn4c3)c(C(C)C)c12 [Example 277] | 0.06 | 20.1
Cc1c(CC2CCNCC2)sc2[nH]c(-c3cc(C)c4ncnn4c3)c(C(C)C)c12 [Example 278] | 0.17 | 0.8
Cc1c(-c2[nH]c3sc(C4CCN(C(=O)[C@H]5CO[C@H](C)CN5)CC4)c(C)c3c2C(C)C)cn2ncnc2c1C [Example 279, [4-[5-(7,8-dimethyl-[1,2,4]triazolo[1,5-a]pyridin-6-yl)-4-isopropyl-3-methyl-6H-thieno[2,3-b]pyrrol-2-yl]-1-piperidyl]-[(3R,6R)-6-methylmorpholin-3-yl]methanone] | 0.54 | 13.6
Cc1c(-c2[nH]c3sc(C4CCN(C(=O)[C@H]5CO[C@@H](C)CN5)CC4)c(C)c3c2C(C)C)cn2ncnc2c1C [Example 280] | 1.96 | 41.2
Cc1c(-c2[nH]c3sc(C4CCN(C(=O)[C@@H]5NCCO[C@H]5C)CC4)c(C)c3c2C(C)C)cn2ncnc2c1C [Example 281] | 2.17 | 13.8
Cc1c(-c2[nH]c3sc(C4CCN(C(=O)[C@@H]5CC(F)(F)CCN5)CC4)c(C)c3c2C(C)C)cn2ncnc2c1C [Example 282] | 1.19 | 19.5
Cc1c(-c2[nH]c3sc(C4CCN(C(=O)C5COC(C(F)(F)F)CN5)CC4)c(C)c3c2C(C)C)cn2ncnc2c1C (stereo not shown) [Example 283] | 2.65 | 139
Cc1c(-c2[nH]c3sc(C4CCN(C(=O)[C@H]5C[C@@H](C(F)(F)F)CCN5)CC4)c(C)c3c2C(C)C)cn2ncnc2c1C [Example 284] | 0.32 | 4.91
Cc1c(-c2[nH]c3sc(C4CCN(C(=O)[C@H]5CO[C@@H](C(F)(F)F)CN5)CC4)c(C)c3c2C(C)C)cn2ncnc2c1C [Example 285] | 3.2 | 129
Cc1c(-c2[nH]c3sc(C4CCN(C5CCCNC5=O)CC4)c(C)c3c2C(C)C)cn2ncnc2c1C (stereo not shown) [Example 286, 3-[4-[5-(7,8-dimethyl-[1,2,4]triazolo[1,5-a]pyridin-6-yl)-4-isopropyl-3-methyl-6H-thieno[2,3-b]pyrrol-2-yl]-1-piperidyl]piperidin-2-one] | 0.94 | 9.39
Cc1c(-c2[nH]c3sc(C4CCN(C5CCNC5=O)CC4)c(C)c3c2C(C)C)cn2ncnc2c1C (stereo not shown) [Example 287, 3-[4-[5-(7,8-dimethyl-[1,2,4]triazolo[1,5-a]pyridin-6-yl)-4-isopropyl-3-methyl-6H-thieno[2,3-b]pyrrol-2-yl]-1-piperidyl]pyrrolidin-2-one] | 0.43 | 12.4
Cc1c(-c2[nH]c3sc(C4CCN(C5CCN(C)C5=O)CC4)c(C)c3c2C(C)C)cn2ncnc2c1C (stereo not shown) [Example 288] | 2.74 | 22.6
Cc1c(-c2[nH]c3sc(C4CCN(CC5CCN(C)C5=O)CC4)c(C)c3c2C(C)C)cn2ncnc2c1C (stereo not shown) [Example 289] | 0.72 | 2.33
Cc1c(-c2[nH]c3sc([C@@H]4C[C@@H]5C[C@H]4CN5C4CCS(=O)(=O)C4)c(C)c3c2C(C)C)cn2ncnc2c1C (stereo partly drawn) [Example 294, 3-[(1S,4R)-5-[5-(7,8-dimethyl-[1,2,4]triazolo[1,5-a]pyridin-6-yl)-4-isopropyl-3-methyl-6H-thieno[2,3-b]pyrrol-2-yl]-2-azabicyclo[2.2.1]heptan-2-yl]thiolane 1,1-dioxide] | 0.71 | 2.77
Cc1c(-c2[nH]c3sc(C4CCN(C(=O)[C@H]5C[C@@]6(CN(CCO)CCO6)C5)CC4)c(C)c3c2C(C)C)cn2ncnc2c1C [Example 295, [4-[5-(7,8-dimethyl-[1,2,4]triazolo[1,5-a]pyridin-6-yl)-4-isopropyl-3-methyl-6H-thieno[2,3-b]pyrrol-2-yl]-1-piperidyl]-[8-(2-hydroxethyl)-5-oxa-8-azaspiro[3.5]nonan-2-yl]methanone] | 0.06 | 18.5
Cc1c(-c2[nH]c3sc(C4CCN(C(=O)[C@H]5C[C@@]6(CN(C)CCO6)C5)CC4)c(C)c3c2C(C)C)cn2ncnc2c1C [Example 296, [4-[5-(7,8-dimethyl-[1,2,4]triazolo[1,5-a]pyridin-6-yl)-4-isopropyl-3-methyl-6H-thieno[2,3-b]pyrrol-2-yl]-1-piperidyl]-(8-methyl-5-oxa-8-azaspiro[3.5]nonan-2-yl)methanone] | < 0.05 | 8.94
Cc1c(-c2[nH]c3sc([C@@H]4C[C@@H]5C[C@H]4CN5C4CC5(CCNC5=O)C4)c(C)c3c2C(C)C)cn2ncnc2c1C (stereo partly shown) [Example 297] | < 0.05 | 0.61
Cc1c(-c2[nH]c3sc(C4CCN(C(=O)[C@H]5C[C@@]6(CN(CC(F)F)CCO6)C5)CC4)c(C)c3c2C(C)C)cn2ncnc2c1C [Example 298, [8-(2,2-difluoroethyl)-5-oxa-8-azaspiro[3.5]nonan-2-yl]-[4-[5-(7,8-dimethyl-[1,2,4]triazolo[1,5-a]pyridin-6-yl)-4-isopropyl-3-methyl-6H-thieno[2,3-b]pyrrol-2-yl]-1-piperidyl]methanone] | < 0.05 | 12.2
Cc1c(-c2[nH]c3sc(C4CCC(N5CC6(CCNC6=O)C5)CC4)c(C)c3c2C(C)C)cn2ncnc2c1C (stereo not shown) [Example 299, 2-[4-[5-(7,8-dimethyl-[1,2,4]triazolo[1,5-a]pyridin-6-yl)-4-isopropyl-3-methyl-6H-thieno[2,3-b]pyrrol-2-yl]cyclohexyl]-2,6-diazaspiro[3.4]octan-5-one] | 0.1 | 2.17
Cc1c(-c2[nH]c3sc(C4CCC(N5CC6(CCO6)C5)CC4)c(C)c3c2C(C)C)cn2ncnc2c1C (stereo not shown) [Example 300] | 0.22 | 1.85
Cc1c(-c2[nH]c3sc(C4CCC(N5CC6(C5)CS(=O)(=O)C6)CC4)c(C)c3c2C(C)C)cn2ncnc2c1C (stereo not shown) [Example 301] | 0.13 | 5.66
Cc1c(-c2[nH]c3sc(C4CCC(N5CC[C@H](F)C5)CC4)c(C)c3c2C(C)C)cn2ncnc2c1C (stereo partly shown) [Example 302] | 0.1 | 6.4
Cc1c(-c2[nH]c3sc(C4CCC(N5CC[C@@H](F)C5)CC4)c(C)c3c2C(C)C)cn2ncnc2c1C (stereo partly shown) [Example 303] | < 0.05 | 2.77
Cc1c(-c2[nH]c3sc(C4CCC(N5CC(C)(O)C5)CC4)c(C)c3c2C(C)C)cn2ncnc2c1C (stereo not shown) [Example 304] | < 0.05 | 1.76
Cc1c(-c2[nH]c3sc([C@@H]4C[C@@H]5C[C@H]4CN5CCS(=O)(=O)CCO)c(C)c3c2C(C)C)cn2ncnc2c1C [Example 307, 2-((2-((1S,4R,5R)-5-(5-(7,8-dimethyl-[1,2,4]triazolo[1,5-a]pyridin-6-yl)-4 isopropyl-3-methyl-6H-thieno[2,3-b]pyrrol-2-yl)-2-azabicyclo[2.2.1]heptan-2-yl)ethyl)sulfonyl)ethan-1-ol] | 0.21 | 0.25

From US11661431B2, “Thienopyrrole compounds” (Gilead Sciences, Inc., priority 2021, dated 2023)
